The source made the active and inactive calls. The calls are words filed in the database; no cut-off is given here.
Each compound was assayed on HT-29 (assay: Growth inhibition of human HT-29 cells incubated for 48 hrs by CCK-8 assay). Details: not given.
Assay type: functional

Structure (SMILES) | GI50 [nM]
CC(C)N1CCN(C(=O)c2ccc(Nc3cc(-c4ccc5nnn(C(C)C)c5c4)ccn3)nc2)CC1 | 80
Cc1ncc(-c2ccnc(Nc3ccc(S(C)(=O)=O)cc3)n2)n1C(C)C [AZD-5438] | 960
CC(C)n1nnc2ccc(-c3ccnc(Nc4ccc(C(=O)N5CCNC(=O)C5)cn4)c3)cc21 | 300
CCN1CCN(C(=O)c2ccc(Nc3cc(-c4ccc5nnn(C(C)C)c5c4)ccn3)nc2)CC1 | 50

These compounds were tested against CDK1/Cyclin E (Homo sapiens) (UniProt P06493+P24864) (assay: Inhibition of CDK1/Cyclin E1 (unknown origin) at 100 nM). Details: not given.
Assay type: protein-complex assay

CDK1/Cyclin E (Homo sapiens), sequence (P06493 whole entry, looked up): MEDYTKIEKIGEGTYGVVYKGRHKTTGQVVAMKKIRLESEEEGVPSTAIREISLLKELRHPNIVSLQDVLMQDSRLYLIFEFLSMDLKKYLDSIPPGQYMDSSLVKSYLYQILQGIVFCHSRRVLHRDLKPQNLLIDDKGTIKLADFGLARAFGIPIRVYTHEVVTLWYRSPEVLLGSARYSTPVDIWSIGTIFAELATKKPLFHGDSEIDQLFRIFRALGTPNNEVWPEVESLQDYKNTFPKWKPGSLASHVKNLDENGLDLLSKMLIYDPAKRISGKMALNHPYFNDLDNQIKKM
CDK1/Cyclin E (Homo sapiens), sequence (P24864 whole entry, looked up): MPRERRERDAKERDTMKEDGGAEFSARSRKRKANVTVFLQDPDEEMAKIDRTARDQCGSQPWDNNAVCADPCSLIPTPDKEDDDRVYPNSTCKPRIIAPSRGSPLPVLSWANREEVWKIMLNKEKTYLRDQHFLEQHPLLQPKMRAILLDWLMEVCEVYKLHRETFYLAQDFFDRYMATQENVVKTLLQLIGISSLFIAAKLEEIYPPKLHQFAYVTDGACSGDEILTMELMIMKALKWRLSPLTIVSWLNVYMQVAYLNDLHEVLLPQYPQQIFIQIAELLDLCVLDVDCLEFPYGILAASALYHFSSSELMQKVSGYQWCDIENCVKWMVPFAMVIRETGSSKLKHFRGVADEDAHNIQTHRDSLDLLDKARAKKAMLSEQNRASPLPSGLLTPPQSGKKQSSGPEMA

Structure (SMILES) | inhibition
CCN1CCN(C(=O)c2ccc(Nc3cc(-c4ccc5nnn(C(C)C)c5c4)ccn3)nc2)CC1 | Active

What follows are compounds tested against CDK2/Cyclin A2 (Homo sapiens) (UniProt P24941+P20248) (assay: Inhibition of CDK2/Cyclin A2 (unknown origin) at 100 nM). Details: not given.
Assay type: protein-complex assay

Structure (SMILES) | inhibition
CCN1CCN(C(=O)c2ccc(Nc3cc(-c4ccc5nnn(C(C)C)c5c4)ccn3)nc2)CC1 | Active

What follows are compounds tested against Cyclin-dependent kinase 2/cyclin E1 (Homo sapiens) (UniProt P24864+P24941) (assay: Inhibition of CDK2/Cyclin E1 (unknown origin) at 100 nM). Details: not given.
Assay type: protein-complex assay

Structure (SMILES) | inhibition
CCN1CCN(C(=O)c2ccc(Nc3cc(-c4ccc5nnn(C(C)C)c5c4)ccn3)nc2)CC1 | Active

The compounds below were run on HCT-116 (assay: Growth inhibition of human HCT-116 cells incubated for 48 hrs by CCK-8 assay). Details: not given.
Assay type: functional

Structure (SMILES) | GI50 [nM]
CC(C)N1CCN(C(=O)c2ccc(Nc3cc(-c4ccc5nnn(C(C)C)c5c4)ccn3)nc2)CC1 | 330
Cc1ncc(-c2ccnc(Nc3ccc(S(C)(=O)=O)cc3)n2)n1C(C)C [AZD-5438] | 450
CC(C)n1nnc2ccc(-c3ccnc(Nc4ccc(C(=O)N5CCNC(=O)C5)cn4)c3)cc21 | 90
CCN1CCN(C(=O)c2ccc(Nc3cc(-c4ccc5nnn(C(C)C)c5c4)ccn3)nc2)CC1 | 60

Each compound was assayed on HCT-116 (assay: Inhibition of colony formation in human HCT-116 cells assessed as reduction in colony number incubated for 14 days by crystal violet staining assay). Details: time 14.0 day.
Assay type: functional, cell-based

Structure (SMILES) | inhibition
Cc1ncc(-c2ccnc(Nc3ccc(S(C)(=O)=O)cc3)n2)n1C(C)C [AZD-5438] | Dose-Dependent Effect

Species: Homo sapiens
Assay: Inhibition of CDK1/Cyclin A2 (unknown origin) at 100 nM
Details: not given

Structure (SMILES) | inhibition
CCN1CCN(C(=O)c2ccc(Nc3cc(-c4ccc5nnn(C(C)C)c5c4)ccn3)nc2)CC1 | Active

These compounds were tested against CDK9/cyclin T1 (Homo sapiens, UniProt P50750) (assay: Inhibition of CDK9/Cyclin T1 (unknown origin) using PDKtide substrate incubated for 60 mins by ADP-Glo kinase assay). Details: not given.
Assay type: protein-complex assay

CDK9/cyclin T1, sequence (O60563 whole entry): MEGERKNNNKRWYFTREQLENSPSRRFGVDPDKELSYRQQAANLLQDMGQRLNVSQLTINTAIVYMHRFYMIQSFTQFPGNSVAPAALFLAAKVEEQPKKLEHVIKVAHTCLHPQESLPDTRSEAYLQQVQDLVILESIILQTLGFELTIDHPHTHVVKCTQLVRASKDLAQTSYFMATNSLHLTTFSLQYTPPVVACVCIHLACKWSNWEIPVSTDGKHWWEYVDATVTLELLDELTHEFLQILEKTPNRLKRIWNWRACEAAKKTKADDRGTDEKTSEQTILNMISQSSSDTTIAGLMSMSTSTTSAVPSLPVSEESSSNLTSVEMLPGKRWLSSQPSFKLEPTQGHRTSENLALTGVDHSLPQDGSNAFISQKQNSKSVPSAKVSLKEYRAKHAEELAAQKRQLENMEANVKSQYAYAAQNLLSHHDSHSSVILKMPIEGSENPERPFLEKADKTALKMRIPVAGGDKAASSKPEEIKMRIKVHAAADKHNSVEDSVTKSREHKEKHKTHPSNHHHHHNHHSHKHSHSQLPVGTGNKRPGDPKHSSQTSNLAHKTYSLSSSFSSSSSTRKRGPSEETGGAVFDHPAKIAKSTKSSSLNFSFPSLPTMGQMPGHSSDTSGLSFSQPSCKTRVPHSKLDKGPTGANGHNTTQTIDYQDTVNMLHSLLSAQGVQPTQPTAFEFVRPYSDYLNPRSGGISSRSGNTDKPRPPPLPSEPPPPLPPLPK
CDK9/cyclin T1, sequence (P50750 whole entry): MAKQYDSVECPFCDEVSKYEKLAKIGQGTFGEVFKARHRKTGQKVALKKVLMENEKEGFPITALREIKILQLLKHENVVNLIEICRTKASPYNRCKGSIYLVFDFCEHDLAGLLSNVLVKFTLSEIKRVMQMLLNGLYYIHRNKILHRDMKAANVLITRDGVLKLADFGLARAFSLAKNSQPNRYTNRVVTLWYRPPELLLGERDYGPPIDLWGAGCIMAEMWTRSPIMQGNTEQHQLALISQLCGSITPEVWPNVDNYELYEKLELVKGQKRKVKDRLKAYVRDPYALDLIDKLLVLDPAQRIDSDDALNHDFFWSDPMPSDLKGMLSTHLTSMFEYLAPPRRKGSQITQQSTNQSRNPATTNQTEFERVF

Structure (SMILES) | IC50 [nM]
CC(C)N1CCN(C(=O)c2ccc(Nc3cc(-c4ccc5nnn(C(C)C)c5c4)ccn3)nc2)CC1 | 4.08
CC(C)n1nnc2ccc(-c3ccnc(Nc4ccc(C(=O)N5CCNC(=O)C5)cn4)c3)cc21 | 2.3
CCN1CCN(C(=O)c2ccc(Nc3cc(-c4ccc5nnn(C(C)C)c5c4)ccn3)nc2)CC1 | 3.8

The compounds below were run on HCT-116 (assay: Antitumor activity against human HCT-116 cells xenografted in BALB/c mouse assessed as tumor growth inhibition at 50 mg/kg,po administrated once daily for 3 weeks). Details: not given.
Assay type: functional, organism-based

Structure (SMILES) | Activity
Cc1ncc(-c2ccnc(Nc3ccc(S(C)(=O)=O)cc3)n2)n1C(C)C [AZD-5438] | Active
